Results as given in PMC6277780, “A Multi-Mode Bioactive Agent Isolated From Ficus microcarpa L. Fill. With Therapeutic Potential for Type 2 Diabetes Mellitus” (Frontiers in Pharmacology, 2018).
Blank lines part the entries; values can stand above or below the molecule they belong to.

Experiments:
α-glucosidase = α-glucosidase (Saccharomyces cerevisiae, UniProt P53341); test: α-Glucosidase inhibition assay (pNPG substrate, 405 nm); assay type: biochemical; settings: Table 1, unit inferred
Method: α-Glucosidase inhibition activity of the fractions and pure compounds (both PA and FL) was determined using the method of [Li et al. (2005)], while few modifications were made, according to system suitability. […] The decrease in absorption spectrum of reaction mixture indicated the inhibition of α-glucosidase activity of the sample under test. Assays were conducted in triplicate in 96-well microtitre plates. […] Percentage of inhibition was calculate by using following formula.
(1) Inhibitory activity=(OD control−OD test sample)/OD control×100
IC50 was calculated by using table curve ASIN software (2D v4) through linear regression analysis.

DPP-4 = DPP-4 (Homo sapiens, UniProt P27487); test: DPP-4 inhibition assay (fluorometric, Gly-Pro-AMC); assay type: biochemical; settings: pure compound and positive control
DPP-4, sequence (P27487 whole entry, species assumed): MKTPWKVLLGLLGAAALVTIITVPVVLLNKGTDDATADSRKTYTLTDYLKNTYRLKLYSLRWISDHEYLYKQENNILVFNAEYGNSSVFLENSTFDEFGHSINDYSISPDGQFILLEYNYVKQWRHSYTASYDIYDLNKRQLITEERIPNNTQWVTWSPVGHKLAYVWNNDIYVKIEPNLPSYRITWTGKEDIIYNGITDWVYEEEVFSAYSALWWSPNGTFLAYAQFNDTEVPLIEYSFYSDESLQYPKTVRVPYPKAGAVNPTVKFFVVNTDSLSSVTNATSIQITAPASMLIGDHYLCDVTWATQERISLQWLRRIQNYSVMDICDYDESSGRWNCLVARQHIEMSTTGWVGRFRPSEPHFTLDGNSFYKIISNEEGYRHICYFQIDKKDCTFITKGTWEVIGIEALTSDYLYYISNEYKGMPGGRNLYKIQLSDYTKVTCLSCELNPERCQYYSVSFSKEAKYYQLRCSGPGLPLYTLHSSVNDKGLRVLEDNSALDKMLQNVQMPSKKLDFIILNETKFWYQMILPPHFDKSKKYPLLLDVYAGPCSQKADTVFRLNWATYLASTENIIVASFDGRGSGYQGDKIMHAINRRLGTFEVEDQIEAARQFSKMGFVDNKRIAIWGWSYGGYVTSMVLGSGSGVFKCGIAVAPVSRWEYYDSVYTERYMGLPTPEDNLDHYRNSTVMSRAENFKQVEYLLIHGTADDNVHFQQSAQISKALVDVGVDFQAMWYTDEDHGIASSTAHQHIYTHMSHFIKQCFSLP
Method: DPP-4 inhibition activity was assessed by using fluorometric technique, following the method documented by [Saleem et al., 2014]. This method calculates the quantity of free AMC (7-amino-4-methyl-coumarin). The AMC is released from the Gly-Pro-AMC which is the substrate of DPP-4. Experiment was performed in triplicate. Fluorescence was measured at Em 430 nm following excitation at Ex351 nm using a Tecan safire desktop fluorometer (Reading, England, United Kingdom). 50 mM HEPES buffer was used for preparation of each sample, whose pH was 7.4. To each well we added DPP-4 (20 μl 1 U/ml), test sample (20 μl) and […]. Plates were placed at 37°C for 1 h and then 3 mM acetic acid (100 μl) was pipetted to stop the reaction. We used Berberine (13 mM), as a control for each experiment, as already reported ([Al-Masri et al., 2009]). IC50 for inhibition of DPP-4 was calculated for each sample.

AMPK = AMPK activation potential in primary hepatocytes (western blot); assay type: cell-based, C57BL/6 mice; settings: 8 h, PA 20 μM, glucagon 2 μM
Method: To evaluate the AMPK activation potential of PA we performed in vitro analysis. We used primary hepatocytes, derived from C57BL/6 mice (Cell Biologics; Cat. C57-6224F). Hepatocytes were kept in M199 (Corning), supplemented with FBS (fetal bovine serum 10%) and glutagro (1% Corning). Hepatocytes were then serum starved, overnight, and prior to procedure in RPMI 1640 (United States Biological Life Sciences, R8999). 8 h prior to harvest, cells were treated with glucagon (2 μM), or test sample (20 μM). Cells were rinsed with ice cold PBS, twice, after harvest and were placed on ice until the extraction of protein was carried out. Assay was conducted in triplicate with three plates for each treatment. Protein from cells was hauled out; quantified and western blot was performed to assess the activation of AMPK after treatment with PA and compared it with untreated control and the cells treated with glucagon.
Extraction of proteins and western blot analysis was carried out, as we already reported ([Akhtar et al., 2016]). Briefly, lysis buffer was added to the harvested cells. […] Concentration of protein in each lysate was measured using Pierce BCA protein assay kit (Thermo Scientific), as per manufacturer’s protocol. […]

α-glucosidase, sequence (P53341 whole entry): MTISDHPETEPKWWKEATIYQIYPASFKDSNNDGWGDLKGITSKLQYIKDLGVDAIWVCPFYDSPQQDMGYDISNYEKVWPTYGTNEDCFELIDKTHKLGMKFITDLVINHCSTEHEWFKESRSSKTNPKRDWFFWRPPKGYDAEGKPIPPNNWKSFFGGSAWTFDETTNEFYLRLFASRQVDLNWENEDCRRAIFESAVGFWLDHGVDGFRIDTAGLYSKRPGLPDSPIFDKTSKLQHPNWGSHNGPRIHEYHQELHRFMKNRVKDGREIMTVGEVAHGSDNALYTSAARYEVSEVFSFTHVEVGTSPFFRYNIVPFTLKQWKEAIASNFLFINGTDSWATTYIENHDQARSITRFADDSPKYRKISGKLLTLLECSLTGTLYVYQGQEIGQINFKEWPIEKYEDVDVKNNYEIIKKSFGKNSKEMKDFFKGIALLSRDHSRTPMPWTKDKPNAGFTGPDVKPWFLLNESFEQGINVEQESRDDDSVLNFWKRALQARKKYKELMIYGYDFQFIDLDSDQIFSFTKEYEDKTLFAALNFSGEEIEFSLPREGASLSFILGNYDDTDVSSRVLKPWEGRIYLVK

Molecule: 3,4,5,7-Flavantetrol
IC50 (α-glucosidase): 200 µM

IC50 (DPP-4): 27.4 ± 2.2 µM
Molecule: COc1ccc2cc3[n+](cc2c1OC)CCc1cc2c(cc1-3)OCO2 [Berberine, reference compound]

Molecule: glucagon [reference compound]
AMPK activation (phosphorylation of AMPK at Thr172) (AMPK): no AMPK activation
phosphorylation of ACC to p-ACC at S79 (AMPK): not observed
